Consider one compound from patent US11512053B2, “Arginine methyltransferase inhibitors and uses thereof” (priority 2013, dated 2022).

What is called IC50 is the concentration that inhibits the measured activity by half.

The target of this assay is full-length human PRMT6 (Flag- and His-tagged) (Homo sapiens, UniProt Q96LA8). Kind of assay: PRMT6 Biochemical Assay (3H-SAM Flashplate, peptide substrate). The conditions noted are these: single experiment or average of multiple experiments; read-out: Biochemical IC50 PRMT6. Summed up: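 Flag/His-tagged full-length human PRMT6 (1 nM) preincubated with compound 30 min at room temperature in Bicine pH 7.6 buffer, then reaction started with 3H-SAM 200 nM plus unlabeled SAM 250 nM and biotinylated H4 36-50 peptide (K44me1) 75 nM; 2% DMSO. Quenched with 400 uM cold SAM; labeled peptide captured on streptavidin Flashplate, counted; % inhibition vs DMSO and 1 mM SAH controls fit by 3- or 4-parameter curve.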
full-length human PRMT6 (Flag- and His-tagged), sequence (Q96LA8 with tags, fused parts or gaps): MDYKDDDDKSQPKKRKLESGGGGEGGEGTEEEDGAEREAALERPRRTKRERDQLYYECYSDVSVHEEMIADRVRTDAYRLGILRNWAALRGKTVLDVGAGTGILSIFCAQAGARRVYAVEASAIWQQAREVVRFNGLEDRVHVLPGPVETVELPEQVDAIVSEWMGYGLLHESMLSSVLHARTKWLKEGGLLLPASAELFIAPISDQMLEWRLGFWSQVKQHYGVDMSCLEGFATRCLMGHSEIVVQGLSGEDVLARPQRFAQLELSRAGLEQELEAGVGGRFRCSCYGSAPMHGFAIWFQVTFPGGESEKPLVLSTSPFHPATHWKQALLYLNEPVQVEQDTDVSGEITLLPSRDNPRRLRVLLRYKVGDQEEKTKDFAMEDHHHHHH

Regarding `CNCCN(C)Cc1c[nH]nc1C#Cc1ccccc1` [Compound 3], the 50% inhibitory concentration (IC50) is 20 nM.
